According to the supplement of paper PMC10307832:

Key:
Assay in all cases: relative viability (nuclei count vs DMSO), 5 days (fraction); higher = more cells survive
Carfilzomib + Luminespib = compound: CC(C)C[C@H](NC(=O)[C@H](CCc1ccccc1)NC(=O)CN1CCOCC1)C(=O)N[C@@H](Cc1ccccc1)C(=O)N[C@@H](CC(C)C)C(=O)[C@@]1(C)CO1 [Carfilzomib] + CCNC(=O)c1noc(-c2cc(C(C)C)c(O)cc2O)c1-c1ccc(CN2CCOCC2)cc1 [Luminespib] (partner 0.01 µM)
Outline: (§1)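 A single step with final 0.05% Triton X-100, 1% formaldehyde and 1 ug/ml Hoechst fixed the cells and stained nuclei 5 days after treatment. Lung cancer cell lines in 1536-well plates had been treated by pin tool the day after seeding with one drug alone or a fixed anchor-drug dose plus five library-drug doses (not always all listed) in √10 steps, and nuclei were counted on 4× images. Relative viability is the ratio of nuclei in treated wells to nuclei in vehicle wells, taken as the median of duplicate plates.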

Carfilzomib + Alpelisib = compound: CC(C)C[C@H](NC(=O)[C@H](CCc1ccccc1)NC(=O)CN1CCOCC1)C(=O)N[C@@H](Cc1ccccc1)C(=O)N[C@@H](CC(C)C)C(=O)[C@@]1(C)CO1 [Carfilzomib] + Cc1nc(NC(=O)N2CCC[C@H]2C(N)=O)sc1-c1ccnc(C(C)(C)C(F)(F)F)c1 [Alpelisib] (partner 2 µM)
Outline: as §1

Crizotinib + Navitoclax = compound: C[C@@H](Oc1cc(-c2cnn(C3CCNCC3)c2)cnc1N)c1c(Cl)ccc(F)c1Cl [Crizotinib] + CC1(C)CCC(c2ccc(Cl)cc2)=C(CN2CCN(c3ccc(C(=O)NS(=O)(=O)c4ccc(N[C@H](CCN5CCOCC5)CSc5ccccc5)c(S(=O)(=O)C(F)(F)F)c4)cc3)CC2)C1 [Navitoclax] (partner 0.5 µM)
Outline: as §1

Olaparib + Decitabine = compound: O=C(c1cc(Cc2n[nH]c(=O)c3ccccc23)ccc1F)N1CCN(C(=O)C2CC2)CC1 [Olaparib] + Nc1ncn([C@H]2C[C@H](O)[C@@H](CO)O2)c(=O)n1 [Decitabine] (partner 2 µM)
Outline: as §1

RERF-LC-KJ was tested, and the relative viability (Carfilzomib + Luminespib; first compound 0.001 µM) was 1.24, the relative viability (Carfilzomib + Luminespib; first compound 0.003162 µM) was 1.29 and the relative viability (Carfilzomib + Luminespib; first compound 0.01 µM) was 1.32. The relative viability (Carfilzomib + Luminespib; first compound 0.03162 µM) was 0.609, the relative viability (Carfilzomib + Luminespib; first compound 0.1 µM) was 0.224 and the relative viability (Carfilzomib + Alpelisib; first compound 0.001 µM) was 0.847. It also gave a relative viability (Carfilzomib + Alpelisib; first compound 0.003162 µM) of 0.873, a relative viability (Carfilzomib + Alpelisib; first compound 0.01 µM) of 0.842 and a relative viability (Carfilzomib + Alpelisib; first compound 0.03162 µM) of 0.645. The relative viability (Carfilzomib + Alpelisib; first compound 0.1 µM) was 0.227, the relative viability (Crizotinib + Navitoclax; first compound 0.01 µM) was 1.18 and the relative viability (Crizotinib + Navitoclax; first compound 0.03162 µM) was 0.767. It also gave a relative viability (Crizotinib + Navitoclax; first compound 0.1 µM) of 1.13, a relative viability (Crizotinib + Navitoclax; first compound 0.3162 µM) of 0.682 and a relative viability (Crizotinib + Navitoclax; first compound 1 µM) of 1.02. The relative viability (Olaparib + Decitabine; first compound 0.08 µM) was 0.703, the relative viability (Olaparib + Decitabine; first compound 0.253 µM) was 0.637 and the relative viability (Olaparib + Decitabine; first compound 2.53 µM) was 0.558. For the same cell line, the relative viability (Olaparib + Decitabine; first compound 8 µM) was 0.451.

SK-LU-1 showed a relative viability (Carfilzomib + Luminespib; first compound 0.001 µM) of 0.238, a relative viability (Carfilzomib + Luminespib; first compound 0.003162 µM) of 0.223 and a relative viability (Carfilzomib + Luminespib; first compound 0.01 µM) of 0.211. The relative viability (Carfilzomib + Luminespib; first compound 0.03162 µM) was 0.154, the relative viability (Carfilzomib + Luminespib; first compound 0.1 µM) was 0.13 and the relative viability (Carfilzomib + Alpelisib; first compound 0.001 µM) was 1.05. For the same cell line, the relative viability (Carfilzomib + Alpelisib; first compound 0.003162 µM) was 1, the relative viability (Carfilzomib + Alpelisib; first compound 0.01 µM) was 0.712 and the relative viability (Carfilzomib + Alpelisib; first compound 0.03162 µM) was 0.182. The relative viability (Carfilzomib + Alpelisib; first compound 0.1 µM) was 0.143, the relative viability (Crizotinib + Navitoclax; first compound 0.01 µM) was 0.829 and the relative viability (Crizotinib + Navitoclax; first compound 0.03162 µM) was 0.851. The relative viability (Crizotinib + Navitoclax; first compound 0.1 µM) was 0.887, the relative viability (Crizotinib + Navitoclax; first compound 0.3162 µM) was 0.938 and the relative viability (Crizotinib + Navitoclax; first compound 1 µM) was 0.806. It also gave a relative viability (Olaparib + Decitabine; first compound 0.08 µM) of 0.476, a relative viability (Olaparib + Decitabine; first compound 0.253 µM) of 0.484 and a relative viability (Olaparib + Decitabine; first compound 2.53 µM) of 0.504. The relative viability (Olaparib + Decitabine; first compound 8 µM) was 0.452.

Work on SK-MES-1 yielded a relative viability (Carfilzomib + Luminespib; first compound 0.001 µM) of 0.854, a relative viability (Carfilzomib + Luminespib; first compound 0.003162 µM) of 0.902 and a relative viability (Carfilzomib + Luminespib; first compound 0.01 µM) of 0.759. For the same cell line, the relative viability (Carfilzomib + Luminespib; first compound 0.03162 µM) was 0.544, the relative viability (Carfilzomib + Luminespib; first compound 0.1 µM) was 0.172 and the relative viability (Carfilzomib + Alpelisib; first compound 0.001 µM) was 0.867. The relative viability (Carfilzomib + Alpelisib; first compound 0.003162 µM) was 1.04, the relative viability (Carfilzomib + Alpelisib; first compound 0.01 µM) was 0.992 and the relative viability (Carfilzomib + Alpelisib; first compound 0.03162 µM) was 0.782. It also gave a relative viability (Carfilzomib + Alpelisib; first compound 0.1 µM) of 0.162, a relative viability (Crizotinib + Navitoclax; first compound 0.01 µM) of 1.2 and a relative viability (Crizotinib + Navitoclax; first compound 0.03162 µM) of 1.29. For the same cell line, the relative viability (Crizotinib + Navitoclax; first compound 0.1 µM) was 1.25, the relative viability (Crizotinib + Navitoclax; first compound 1 µM) was 1.2 and the relative viability (Olaparib + Decitabine; first compound 0.08 µM) was 0.305. For the same cell line, the relative viability (Olaparib + Decitabine; first compound 0.253 µM) was 0.299, the relative viability (Olaparib + Decitabine; first compound 2.53 µM) was 0.303 and the relative viability (Olaparib + Decitabine; first compound 8 µM) was 0.262.

SW 1573 showed a relative viability (Carfilzomib + Luminespib; first compound 0.001 µM) of 0.317, a relative viability (Carfilzomib + Luminespib; first compound 0.003162 µM) of 0.23 and a relative viability (Carfilzomib + Luminespib; first compound 0.01 µM) of 0.368. The relative viability (Carfilzomib + Luminespib; first compound 0.03162 µM) was 0.0748, the relative viability (Carfilzomib + Luminespib; first compound 0.1 µM) was 0.057 and the relative viability (Carfilzomib + Alpelisib; first compound 0.001 µM) was 0.731. For the same cell line, the relative viability (Carfilzomib + Alpelisib; first compound 0.003162 µM) was 0.835, the relative viability (Carfilzomib + Alpelisib; first compound 0.01 µM) was 0.642 and the relative viability (Carfilzomib + Alpelisib; first compound 0.03162 µM) was 0.19. It also gave a relative viability (Carfilzomib + Alpelisib; first compound 0.1 µM) of 0.096, a relative viability (Crizotinib + Navitoclax; first compound 0.01 µM) of 0.683 and a relative viability (Crizotinib + Navitoclax; first compound 0.1 µM) of 0.97. The relative viability (Crizotinib + Navitoclax; first compound 0.3162 µM) was 0.945, the relative viability (Crizotinib + Navitoclax; first compound 1 µM) was 0.932 and the relative viability (Olaparib + Decitabine; first compound 0.08 µM) was 0.32. The relative viability (Olaparib + Decitabine; first compound 0.253 µM) was 0.301, the relative viability (Olaparib + Decitabine; first compound 2.53 µM) was 0.16 and the relative viability (Olaparib + Decitabine; first compound 8 µM) was 0.139.

Cell Line UMC-11 has a relative viability (Carfilzomib + Luminespib; first compound 0.001 µM) of 1.01, a relative viability (Carfilzomib + Luminespib; first compound 0.003162 µM) of 1.01 and a relative viability (Carfilzomib + Luminespib; first compound 0.01 µM) of 1.02. The relative viability (Carfilzomib + Luminespib; first compound 0.03162 µM) was 0.846, the relative viability (Carfilzomib + Luminespib; first compound 0.1 µM) was 0.268 and the relative viability (Carfilzomib + Alpelisib; first compound 0.001 µM) was 1.01. For the same cell line, the relative viability (Carfilzomib + Alpelisib; first compound 0.003162 µM) was 0.976, the relative viability (Carfilzomib + Alpelisib; first compound 0.01 µM) was 0.947 and the relative viability (Carfilzomib + Alpelisib; first compound 0.03162 µM) was 1.03. For the same cell line, the relative viability (Carfilzomib + Alpelisib; first compound 0.1 µM) was 0.152, the relative viability (Crizotinib + Navitoclax; first compound 0.01 µM) was 0.285 and the relative viability (Crizotinib + Navitoclax; first compound 0.03162 µM) was 0.308. For the same cell line, the relative viability (Crizotinib + Navitoclax; first compound 0.1 µM) was 0.306, the relative viability (Crizotinib + Navitoclax; first compound 0.3162 µM) was 0.282 and the relative viability (Crizotinib + Navitoclax; first compound 1 µM) was 0.365. The relative viability (Olaparib + Decitabine; first compound 0.08 µM) was 0.497, the relative viability (Olaparib + Decitabine; first compound 2.53 µM) was 0.405 and the relative viability (Olaparib + Decitabine; first compound 8 µM) was 0.4.
